Read-outs that look alike come from different tables or passages of the source.
Tests used:
NEK6 = NEK6 (Homo sapiens, UniProt Q9HC98); test: biochemical; conditions: read-out: NEK6 activity as percentage of control without inhibitor
Protocol: (§1) All assays (25.5 μl) were carried out at room temperature (21° C.) and were linear with respect to time and enzyme concentrations under the conditions used. Assays were performed for 30 minutes except assays for LCK and PKB which were performed for 15 minutes using Multidrop Micro reagent dispensers (Thermo Electron Corporation, Waltham, Mass. 02454, USA) in a 96-well format. The concentration of […] [γ-^33P] ATP (800 cpm/pmol) in the assays was one of three concentrations (5, 20 or 50 μM) in order to be at or below Km for ATP for the enzyme. Assays were initiated with MgATP and stopped by addition of 5 μl of 0.5M orthophosphoric acid. Assays were then harvested onto P81 filterplates using a unifilter harvester (PerkinElmer, Boston, Mass. 02118, USA), with a wash buffer of 50 mM orthophosphoric acid. Filterplates were then air dried overnight. 10 μl of Microscint O was added per well prior to counting for radioactivity.
NEK6 (5-20 mU diluted in 50 mM Tris (pH 7.5), 0.1 mM EGTA, 1 mg/ml BSA, 0.1%, β-Mercaptoethanol) is assayed against NEK6 peptide ([…]) in a final volume of 25.5 μl containing 50 mM Tris (pH 7.5), 0.1 mM EGTA, 0.01% Brij, 0.1%, β-Mercaptoethanol, NEK6 peptide (0.3 mM), 10 mM magnesium acetate and 0.05 mM [^33P- γATP](500-1000 cpm/pmole) and incubated for 30 min at room temperature.

EFK2 = molecular target: T1, EFK2 (Homo sapiens, UniProt O00418); test: biochemical; conditions: read-out: EFK2 activity as percentage of control without inhibitor
T1 sequence (O00418 1-725): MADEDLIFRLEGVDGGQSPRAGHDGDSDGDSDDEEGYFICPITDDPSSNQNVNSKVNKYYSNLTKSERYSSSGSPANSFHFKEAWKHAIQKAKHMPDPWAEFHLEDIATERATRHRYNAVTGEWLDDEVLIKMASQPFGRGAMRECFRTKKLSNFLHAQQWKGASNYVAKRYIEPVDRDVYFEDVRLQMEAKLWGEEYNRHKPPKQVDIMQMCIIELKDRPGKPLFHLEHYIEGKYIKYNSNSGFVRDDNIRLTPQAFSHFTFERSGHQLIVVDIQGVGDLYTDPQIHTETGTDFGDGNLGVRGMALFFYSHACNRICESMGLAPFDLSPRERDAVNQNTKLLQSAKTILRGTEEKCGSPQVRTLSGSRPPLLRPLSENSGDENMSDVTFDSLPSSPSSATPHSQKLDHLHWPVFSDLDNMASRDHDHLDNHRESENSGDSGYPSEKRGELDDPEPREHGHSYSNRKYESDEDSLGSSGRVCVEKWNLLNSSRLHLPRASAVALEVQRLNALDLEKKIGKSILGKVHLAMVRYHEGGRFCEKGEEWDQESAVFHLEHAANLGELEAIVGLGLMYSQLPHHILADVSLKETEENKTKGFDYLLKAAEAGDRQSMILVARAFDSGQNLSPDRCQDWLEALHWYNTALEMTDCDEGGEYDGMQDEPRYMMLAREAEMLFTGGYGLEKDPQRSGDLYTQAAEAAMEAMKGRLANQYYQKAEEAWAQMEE
Protocol: as §1
(§2) The following kinases were assayed against the substrates indicated. Aurora B was assayed against the substrate peptide […] (300 μM), ERK8 and MST-2 were both assayed against MBP (0.33 mg/ml). IKKβ was assayed against the substrate peptide […] (300 μM), JNK3 was assayed against 3 μM ATF2[19-96]. MAPKAP-K3 and PKD1 were both assayed against […] (30 μM), MARK3 was assayed against CHKtide ([…]) substrate peptide (300 μM). MNK1 and MNK2 were both assayed against eIF4E protein (0.5 mg/ml). NEK7 was assayed against […] (300 μM), PIM2 was assayed against […] (300 μM), ΔPH PKBβ-S474D was assayed against Crosstide (30 μM), PLK1 was assayed against […] (300 μM). PRK2 was assayed against Long S6 peptide, […] (30 μM), RSK2 was assayed against […] (30 μM), SRC was assayed against cdc2 peptide, […], (300 μM) and SRPK1 was assayed against peptide […] (300 μM). All enzymes were diluted in 50 mM Tris/HCl pH 7.5, 0.1 mM EGTA, 1 mg/ml BSA, 0.1% β-mercaptoethanol buffer and assayed in an incubation containing 50 mM Tris/HCl pH7.5, 0.1 mM EGTA, 0.1% β-mercaptoethanol, CAMK-1 (5-20 mU) diluted in 50 mM Tris/HCl pH 7.5, 0.1 mM EGTA, 1 mg/ml BSA, 0.1% β-mercaptoethanol is assayed against substrate peptide […] in an incubation containing 50 mM Tris/HCl pH 7.5, 0.1 mM EGTA, 0.5 mM CaCl2, 0.3 μM calmodulin, 0.1% β-mereaptoethanol, 300 μM substrate peptide, 10 mM magnesium acetate and 0.05 mM [^33P-γ-ATP] (500-1000 cpm/pmole). EF2K (5-20 mU) diluted in 50 mM Hepes pH 6.6, 0.1% β-mercaptoethanol, 1 mg/ml BSA is assayed against a substrate peptide […] in an incubation containing 50 mM Hepes pH 6.6, 0.2 mM CaCl2, 0.3 μM Calmodulin, 0.05% b-mercaptoethanol, 300 μM substrate peptide, 10 mM magnesium acetate and 0.05 mM [^33P-γ-ATP] (500-1000 cpm/pmole).

MNK1 = MNK1 (Homo sapiens, UniProt Q9BUB5); test: biochemical; conditions: read-out: MNK1 activity as percentage of control without inhibitor
Protocol: as §1, §2

MAPKAP-K3 = MAPKAP-K3 (Homo sapiens, UniProt Q16644); test: biochemical; conditions: read-out: MAPKAP-K3 activity as percentage of control without inhibitor
Protocol: as §1, §2

PKBb = PKBb (Homo sapiens, UniProt P31751, S474D); test: PKBb 33P kinase assay; assay type: biochemical; conditions: read-out: PKBb activity as percentage of control without inhibitor
Protocol: as §1, §2
ΔPH-PKBbeta-S474D (5-20 mU diluted in 50 mM Tris pH 7.5, 0.1 mM EGTA, 0.1% β-mercaptoethanol, 1 mg/ml BSA) is assayed against a modified Crosstide peptide ([…]) in a final volume of 25.5 μl containing 50 mM Tris pH 7.5, 0.05% β-mercaptoethanol, 30 μM substrate peptide, 10 mM magnesium acetate and 0.05 mM [^33P- γATP] (50-1000 cpm/pmole) and incubated for 30 min at room temperature.

Chain of PKBb (P31751 120-481 S474D limits assumed): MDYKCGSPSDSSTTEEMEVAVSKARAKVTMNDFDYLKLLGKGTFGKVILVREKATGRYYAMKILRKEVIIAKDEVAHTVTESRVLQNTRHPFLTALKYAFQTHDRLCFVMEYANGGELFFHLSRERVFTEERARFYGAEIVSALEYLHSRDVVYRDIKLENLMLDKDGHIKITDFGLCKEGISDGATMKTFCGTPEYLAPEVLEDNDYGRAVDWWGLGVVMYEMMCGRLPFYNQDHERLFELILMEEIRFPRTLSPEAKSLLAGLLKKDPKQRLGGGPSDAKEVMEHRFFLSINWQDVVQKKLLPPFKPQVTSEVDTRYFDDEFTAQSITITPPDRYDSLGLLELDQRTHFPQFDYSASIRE
Chain of MAPKAP-K3 (Q16644 whole entry, species assumed): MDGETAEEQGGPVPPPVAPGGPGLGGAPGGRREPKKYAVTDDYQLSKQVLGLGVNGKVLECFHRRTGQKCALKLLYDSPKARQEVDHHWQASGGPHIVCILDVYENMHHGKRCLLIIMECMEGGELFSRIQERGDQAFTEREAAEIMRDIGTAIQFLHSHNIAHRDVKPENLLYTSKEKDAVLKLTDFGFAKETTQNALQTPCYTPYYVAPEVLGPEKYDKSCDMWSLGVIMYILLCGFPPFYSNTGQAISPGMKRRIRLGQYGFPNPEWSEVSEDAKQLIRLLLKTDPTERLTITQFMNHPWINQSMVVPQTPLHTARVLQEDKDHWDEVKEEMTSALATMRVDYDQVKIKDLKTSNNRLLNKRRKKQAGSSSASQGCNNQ
Chain of NEK6 (Q9HC98 whole entry, species assumed): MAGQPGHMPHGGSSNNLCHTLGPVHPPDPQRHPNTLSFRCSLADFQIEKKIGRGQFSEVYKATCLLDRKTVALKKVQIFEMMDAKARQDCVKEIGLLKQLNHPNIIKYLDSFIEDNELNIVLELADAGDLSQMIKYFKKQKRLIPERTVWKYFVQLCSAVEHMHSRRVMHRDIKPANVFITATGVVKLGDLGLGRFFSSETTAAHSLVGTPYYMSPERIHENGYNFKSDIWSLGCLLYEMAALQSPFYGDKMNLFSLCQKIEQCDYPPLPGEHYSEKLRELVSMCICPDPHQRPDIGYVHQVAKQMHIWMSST
Chain of MNK1 (Q9BUB5 whole entry, species assumed): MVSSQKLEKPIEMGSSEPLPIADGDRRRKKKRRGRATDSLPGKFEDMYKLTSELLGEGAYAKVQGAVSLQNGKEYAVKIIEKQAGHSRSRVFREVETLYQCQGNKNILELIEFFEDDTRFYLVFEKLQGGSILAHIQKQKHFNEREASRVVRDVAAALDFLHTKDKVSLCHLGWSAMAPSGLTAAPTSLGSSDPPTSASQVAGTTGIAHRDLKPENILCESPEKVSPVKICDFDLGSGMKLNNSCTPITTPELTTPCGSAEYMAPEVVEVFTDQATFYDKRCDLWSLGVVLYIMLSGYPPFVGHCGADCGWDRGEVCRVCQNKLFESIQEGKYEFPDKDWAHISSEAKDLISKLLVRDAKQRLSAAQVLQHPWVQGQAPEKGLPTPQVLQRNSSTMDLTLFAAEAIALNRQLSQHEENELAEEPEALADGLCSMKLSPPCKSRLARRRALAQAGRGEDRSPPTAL

SMILES | remaining activity at 1 µM (NEK6) | remaining activity at 10 µM (NEK6) | remaining activity at 1 µM (EFK2) | remaining activity at 10 µM (EFK2) | remaining activity at 1 µM (MNK1) | remaining activity at 10 µM (MNK1) | remaining activity at 1 µM (MAPKAP-K3) | remaining activity at 10 µM (MAPKAP-K3) | remaining activity at 1 µM (PKBb) | remaining activity at 10 µM (PKBb) | remaining activity at 1 µM (NEK6; inhibitor 1 μM) | remaining activity at 10 µM (NEK6; inhibitor 10 μM) | remaining activity at 1 µM (EFK2; inhibitor 1 μM) | remaining activity at 10 µM (EFK2; inhibitor 10 μM) | remaining activity at 1 µM (MNK1; inhibitor 1 μM) | remaining activity at 10 µM (MNK1; inhibitor 10 μM) | remaining activity at 1 µM (MAPKAP-K3; inhibitor 1 μM) | remaining activity at 10 µM (MAPKAP-K3; inhibitor 10 μM) | remaining activity at 1 µM (PKBb; inhibitor 1 μM) | remaining activity at 10 µM (PKBb; inhibitor 10 μM)
COc1ccc2c(c1)[nH]c1c(C)nccc12 [Harmine] | 96% | 99% | 102% | 101% | 84% | 52% | 89% | 93% | 94% | 101% |  |  |  |  |  |  |  |  |  | 
COc1ccc2c3c([nH]c2c1)C(C)=NCC3 [Harmaline] |  |  |  |  |  |  |  |  |  |  | 99% | 87% | 106% | 100% | 89% | 82% | 79% | 82% | 97% | 96%
CC1=NCCc2c1[nH]c1cc(O)ccc21 [Harmalol] |  |  |  |  |  |  |  |  |  |  | 94% | 92% | 97% | 85% | 80% | 48% | 95% | 88% | 103% | 77%
